Among the test systems are OVCAR-3 ovarian; NCI-H522 lung; HOP-62 NSCLC; SNB-19 CNS; CAKI-1 renal; ACHN renal; EKVX NSCLC; RPMI-8226 leukemia; OVCAR-8 ovarian; SK-MEL-5 melanoma.
What all share (assay): growth of human tumour cells (NCI), 48 h

In PubChem BioAssay (NCI) one finds TGI and GI50 data, which are given here for 14 molecules.

SMILES strings stand for the structures.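 These data come from cells grown in 96-well plates and exposed to compound for 48 hours at five concentrations. Here, GI50 denotes the concentration required for 50% inhibition of growth. The concentration for full growth arrest is given as TGI.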 Some results are limits rather than exact numbers.

Turning to `O=C(NN1CCCCC1)c1cc2cc(CCl)ccc2oc1=O`, the TGI is 39.3 µM with OVCAR-3 ovarian; 22.7 µM in the assay on NCI-H522 lung; 40.5 µM in the assay on HOP-62 NSCLC; 65.2 µM in the assay on SNB-19 CNS; 33.3 µM in the assay on CAKI-1 renal; greater than 100 µM in the assay with ACHN renal. In addition, the TGI worked out at 27.4 µM with EKVX NSCLC, 59 µM with RPMI-8226 leukemia, 54.8 µM in the assay on OVCAR-8 ovarian and 33.7 µM in the assay with SK-MEL-5 melanoma.
On to `CC(C)(C)COS(=O)OCC(C)(C)C`, for which the TGI in the assay on OVCAR-3 ovarian, in the assay on NCI-H522 lung, with HOP-62 NSCLC, in the assay with SNB-19 CNS, in the assay with CAKI-1 renal and with ACHN renal was greater than 100 µM each time. The TGI in the assay with EKVX NSCLC, in the assay with RPMI-8226 leukemia, with OVCAR-8 ovarian and in the assay with SK-MEL-5 melanoma was greater than 100 µM each time.
Consider `Cc1ccc(S(=O)(=O)Nc2cc(=O)[nH]c3c2CCC3)cc1`, for which the TGI with OVCAR-3 ovarian, in the assay with NCI-H522 lung, with HOP-62 NSCLC, in the assay with SNB-19 CNS, with CAKI-1 renal and in the assay with ACHN renal was greater than 100 µM throughout. Besides, the TGI in the assay with EKVX NSCLC, with RPMI-8226 leukemia, in the assay with OVCAR-8 ovarian and in the assay on SK-MEL-5 melanoma was greater than 100 µM each time.
For the molecule `CC12OC(C(=O)C13CCC3)C1C(=O)c3c(O)ccc(O)c3C(=O)C12` (stereo not given), the GI50 in the assay on OVCAR-3 ovarian was 0.62 µM; with NCI-H522 lung, 2.95 µM; in the assay with HOP-62 NSCLC it was 3.01 µM; with SNB-19 CNS it was 14.7 µM; in the assay on CAKI-1 renal, 817 nM; in the assay on ACHN renal, 0.715 µM. Moreover, the GI50 with EKVX NSCLC is 9.34 µM; in the assay with RPMI-8226 leukemia, 0.336 µM; in the assay with OVCAR-8 ovarian, 7.04 µM; in the assay with SK-MEL-5 melanoma it was 11 µM. For the same molecule, the TGI with OVCAR-3 ovarian is 2.71 µM; in the assay with NCI-H522 lung it was 10.2 µM; with HOP-62 NSCLC, 15.6 µM; with SNB-19 CNS it was greater than 50.5 µM; in the assay on CAKI-1 renal it was 2.62 µM; in the assay with ACHN renal, 2.01 µM. In addition, the TGI in the assay with EKVX NSCLC is 22.7 µM; with RPMI-8226 leukemia, 3.11 µM; with OVCAR-8 ovarian it was 18.1 µM; in the assay on SK-MEL-5 melanoma, 26.1 µM.
On to `Nc1csc(-c2scc3c2OCCO3)c1N`, for which the TGI in the assay on OVCAR-3 ovarian is 36.1 µM; in the assay with NCI-H522 lung, 33.8 µM; in the assay with HOP-62 NSCLC it was 42.6 µM; in the assay with SNB-19 CNS, greater than 100 µM; in the assay on CAKI-1 renal it was greater than 100 µM; in the assay with ACHN renal it was greater than 100 µM. Also, the TGI in the assay on EKVX NSCLC was 72.3 µM; with RPMI-8226 leukemia it was greater than 100 µM; in the assay with OVCAR-8 ovarian it was 40.1 µM; in the assay on SK-MEL-5 melanoma it was 35.4 µM.
As to `COc1cc(/C=C2\CC3C4CC[C@H]5C[C@@H](O)CC[C@]5(C)C4CC[C@]3(C)\C2=N\O)cc(OC)c1OC` (stereo not given in full), the TGI is 11 µM in the assay with OVCAR-3 ovarian; 94.8 µM in the assay on NCI-H522 lung; 38.9 µM in the assay on HOP-62 NSCLC; greater than 100 µM with SNB-19 CNS; 29.3 µM in the assay with CAKI-1 renal; 39.8 µM in the assay on ACHN renal. Besides, the TGI in the assay with EKVX NSCLC was greater than 100 µM; with RPMI-8226 leukemia, 23.4 µM; with OVCAR-8 ovarian it was greater than 100 µM; with SK-MEL-5 melanoma, 30.7 µM.
Regarding `C=C(CN(C)C)C(=O)c1ccccc1Cl`, the TGI in the assay on OVCAR-3 ovarian was 34.9 µM; in the assay on NCI-H522 lung, 15.6 µM; with HOP-62 NSCLC, greater than 100 µM; in the assay on SNB-19 CNS, greater than 100 µM; in the assay with CAKI-1 renal, 30.9 µM; with ACHN renal, 32.5 µM. The TGI is greater than 76.6 µM in the assay on EKVX NSCLC, 82.3 µM with RPMI-8226 leukemia, 45.2 µM in the assay with OVCAR-8 ovarian and 57.8 µM in the assay with SK-MEL-5 melanoma.
In the case of `CN(CCCN1CCCC1)CCCN(C)C(=O)Cc1ccc(Cl)c(Cl)c1`, the TGI in the assay with OVCAR-3 ovarian is greater than 88.4 µM; in the assay with NCI-H522 lung it was 32.4 µM; in the assay on HOP-62 NSCLC it was 51 µM; in the assay on SNB-19 CNS, greater than 72.6 µM; with CAKI-1 renal, 49.1 µM; in the assay with ACHN renal it was greater than 68.3 µM. Also, the TGI is 62.5 µM in the assay with EKVX NSCLC, 22.4 µM in the assay with RPMI-8226 leukemia, greater than 100 µM with OVCAR-8 ovarian and 36.3 µM in the assay with SK-MEL-5 melanoma.
For `CC(NC(=O)c1ccc(OP(=O)(OCc2ccc([N+](=O)[O-])o2)N(C)CCCCCl)cc1)c1ccc(OCC2CCCCC2)c(C(N)=O)c1` (stereo not given), the TGI is 15.7 µM with OVCAR-3 ovarian; 6.44 µM in the assay with NCI-H522 lung; 36.7 µM in the assay on HOP-62 NSCLC; greater than 100 µM in the assay on SNB-19 CNS; greater than 58 µM in the assay on CAKI-1 renal; greater than 35.4 µM in the assay on ACHN renal. Besides, the TGI in the assay on EKVX NSCLC was greater than 100 µM; in the assay with RPMI-8226 leukemia, 3.24 µM; in the assay with OVCAR-8 ovarian it was greater than 74.4 µM; in the assay with SK-MEL-5 melanoma, 6.14 µM.
Regarding `Cc1ccc([N+](=O)[O-])cc1S(=O)(=O)Nc1ccc(C2=NN(C(=O)c3ccccc3)C(c3ccccc3O)C2)cc1` (stereo not given), the TGI was 56.8 µM in the assay with OVCAR-3 ovarian; 28.6 µM in the assay with NCI-H522 lung; 85.7 µM in the assay on HOP-62 NSCLC; greater than 100 µM in the assay with SNB-19 CNS; 91.9 µM in the assay on CAKI-1 renal; 47.8 µM in the assay with ACHN renal. The TGI is 31 µM in the assay with EKVX NSCLC, greater than 100 µM in the assay with RPMI-8226 leukemia, 57.7 µM in the assay with OVCAR-8 ovarian and 34.7 µM with SK-MEL-5 melanoma.
As for `Nc1ccc(Cc2ccc(N)c(C(=O)O)c2)cc1C(=O)O`, the TGI with OVCAR-3 ovarian, with NCI-H522 lung, with HOP-62 NSCLC, in the assay on SNB-19 CNS, in the assay with CAKI-1 renal and in the assay with ACHN renal was greater than 100 µM each time. Also, the TGI with EKVX NSCLC, in the assay with RPMI-8226 leukemia, with OVCAR-8 ovarian and with SK-MEL-5 melanoma was greater than 100 µM in each case.
On to `COc1ccc(-n2nc(C(=O)c3ccccc3)c3nn4c(=O)cc(-c5ccccc5)nc4nc32)cc1`, for which the GI50 with OVCAR-3 ovarian was 30.7 µM; in the assay on NCI-H522 lung it was 23.1 µM; in the assay with HOP-62 NSCLC, 44.1 µM; in the assay with SNB-19 CNS, 69.1 µM; in the assay on CAKI-1 renal it was greater than 100000 nM; in the assay with ACHN renal it was 45.9 µM. Moreover, the GI50 in the assay on EKVX NSCLC is 53.5 µM; in the assay with RPMI-8226 leukemia it was 40 µM; in the assay with OVCAR-8 ovarian, 40.1 µM; with SK-MEL-5 melanoma, 41.7 µM. The TGI is greater than 100 µM in the assay with OVCAR-3 ovarian; 81.2 µM in the assay with NCI-H522 lung; greater than 100 µM in the assay with HOP-62 NSCLC; greater than 100 µM in the assay with SNB-19 CNS; greater than 100 µM in the assay with CAKI-1 renal; greater than 100 µM in the assay on ACHN renal. The TGI in the assay on EKVX NSCLC, with RPMI-8226 leukemia, with OVCAR-8 ovarian and with SK-MEL-5 melanoma was greater than 100 µM each time.
With `COc1cc(S(=O)(=O)Nc2ccc(-c3csc(/N=C\c4cccc(Oc5ccccc5)c4)n3)cc2)ccc1Cl`, the TGI with OVCAR-3 ovarian is greater than 100 µM; in the assay with NCI-H522 lung, 66.6 µM; in the assay on HOP-62 NSCLC, greater than 100 µM; with SNB-19 CNS it was greater than 100 µM; with CAKI-1 renal, greater than 100 µM; with ACHN renal, 71.8 µM. For the same molecule, the TGI in the assay with EKVX NSCLC is 81.4 µM; with RPMI-8226 leukemia, 75.6 µM; in the assay on OVCAR-8 ovarian, 61.9 µM; in the assay with SK-MEL-5 melanoma, greater than 100 µM.
Take `CN(CCc1ccccn1)c1ccc2c(c1)Cc1ccccc1-2`: the TGI is greater than 100 µM with OVCAR-3 ovarian; 62.1 µM with NCI-H522 lung; 44.6 µM with HOP-62 NSCLC; 58 µM in the assay with SNB-19 CNS; greater than 100 µM in the assay on CAKI-1 renal; greater than 100 µM in the assay on ACHN renal. The TGI was determined as 62 µM in the assay on EKVX NSCLC, 84.7 µM in the assay on RPMI-8226 leukemia, 77.8 µM in the assay with OVCAR-8 ovarian and 31.3 µM in the assay on SK-MEL-5 melanoma.
